Source: patent US7790709B2 (dated 2010)

melting point	SMILES
185 to 187 °C	CN(Cc1cc2ccccc2n1C)C(=O)/C=C/c1ccc(N2C(=O)CCC2=O)nc1
225 to 227 °C	CN(Cc1cc2ccccc2n1C)C(=O)/C=C/c1ccc(NC(=O)CCC(N)=O)nc1
206 to 209 °C (dec.)	CN(Cc1cc2ccccc2n1C)C(=O)/C=C/c1ccc(NC(=O)CCC(=O)N2CCOCC2)nc1
